Values joined by “and” are separate entries in the source; they are usually repeats but may differ in a detail not shown here. Identical values can stand only once.
How the values were obtained:
[1] = test system: MRSA MW2 biofilm on catheter; assay: In vivo biofilm on catheter implanted subcutaneously in neutropenic mice
Protocol: Eight-nine week old female BALB/c mice 25 g were rendered neutropenic with cyclophosphamide and were operated under ketamine-xylazine anesthesia. A 1-cm incision was made in the dorsal neck surface by aseptic technique and subcutaneous pouch was created. Catheter segments of 1 cm length pre-incubated with MRSA MW2 suspension (6×10^3 CFUs/mL) for 4 hrs, were placed in the subcutaneous space and the wounds were closed with suture thereafter. As uninfected control, one group of mice were surgically operated and a sterile catheter segment was placed in the cavity. At 24 hours post-catheter implantation, mice were treated with P128 (800 μg per animal, subcutaneously) or with the placebo (saline). Treatments were given thrice a day at 2 hr intervals for three days and 1 hr after the last treatment, the catheters were removed, biofilms were harvested and CFUs recovered were plated on culture media and enumerated. Catheters from a subset of animals were stained with 0.1% safranin, (which stains the bacteria) for 5 min.
For evaluation of synergy with daptomycin, mouse model of biofilm described above was used with few modifications. Eight-nine week old female BALB/c mice 25 g were rendered neutropenic with cyclophosphamide and were operated under ketamine-xylazine anesthesia. A 1-cm incision was made in the dorsal neck surface by aseptic technique and subcutaneous pouch was created. Catheter segments measuring 1 cm were placed in the subcutaneous space, and the wounds closed with suture. At 72 hours post-implantation. MRSA MW2 bacterial inoculum (2.1×10^7 CFU per animal) was injected subcutaneously onto the catheter. At 24 hrs post-challenge, animals were treated with either P128 (800 μg per animal, subcutaneous), or daptomycin (12.5 mg/kg, subcutaneous) or a combination of both. Daptomycin was given once every day for three days whereas P128 was administered thrice a day at 2 hr interval for three days. 1 hr after the last treatment, animals were euthanized and catheters were collected and recovered CFUs were enumerated.
Biofilms were also visualized by staining the catheters with 0.1% safranin.

[2] = test system: S. aureus MW2 biofilms on catheters; assay: Preformed biofilms on catheters, safranin staining and SEM; format: cell-based, Staphylococcus aureus; conditions: 18 hrs; P128 8 μg/mL (1×MIC); vancomycin 90 μg/mL (90×MIC); daptomycin 10 μg/mL (10×MIC)
Protocol: To study the efficacy of P128 on biofilms on catheters, an overnight-grown culture of S. aureus MW2 was diluted 1:40 in TSB containing 5% rabbit plasma. Catheter (JMS Infusion set) pieces of 1-2 cm size were cut, slit into two halves and added to the culture. The cultures with catheter pieces were incubated at 37° C. with shaking at 100 rpm for 24 h. Post incubation, the catheters were removed and rinsed twice in PBS to remove the adhering planktonic cells. The biofilms on catheters were challenged with 8, 4, 2 and 1 μg/mL of P128 or 15, 30 and 90 μg/mL of vancomycin or 10 μg/mL of daptomycin (with 50 μg/mL CaCl2) by transferring the catheter pieces into tubes containing the drugs. The tubes were incubated at 37° C. under static conditions for 18 hrs. The catheters were then removed from the tubes, rinsed once in PBS, and immersed in 0.1% safranin for 5 min. The stained catheters were washed once in PBS and allowed to dry. After drying, samples were fixed on aluminum stubs with double sided carbon adhesive tape, coated with 5-7 nm thickness gold using a sputter-coating system (Quorum Technologies; Q150T) and examined by SEM (Carl Zeiss; Neon 40) for the presence of biofilm structures.

[3] = test system: S. epidermidis, S. lugdunensis and S. haemolyticus biofilms; assay: CoNS biofilm eradication, crystal violet staining; format: cell-based; conditions: for Activity on preformed biofilm, crystal violet: 250 and 100 μg/mL for 4 h, all three CoNS
Protocol: Dis. 209:1469-78 was followed. Briefly, S. epidermidis, S. lugdunensis and S. haemolyticus strains were inoculated into TSB with 2% glucose and the cultures were grown overnight. The cultures were diluted 1:50 in TSB to achieve an OD600˜0.1. Two hundred micro liter of the diluted culture was added to 1.8 ml of TSB media aliquoted into each well of a 24 well plate (˜5×10^5 CFU). The plates were kept at 37° C. under static conditions for 18 h, the contents were aspirated, the wells were washed twice with 2.0 ml of 1×PBS, and 1 mL of media+1 mL of the drug was added to each well and incubated at 37° C. for 0, 2, 4, and 24 h. TSB supplemented with 50 μg/ml Ca^++ was used for daptomycin treatment wells. The contents were aspirated out at the stipulated time points and the wells were washed with 2 ml of 1×PBS. The wells were allowed to dry at 37° C. for 15 min and stained with 1 mL of 1% CV for 5 min. The wells were washed with 1 mL of 1×PBS, air dried and observed for intensity of blue color.
(§1) 0.1% CV was used for staining biofilms. Post staining and washing steps, 1 mL 30% acetic acid is added to each well, incubated in RT for 5-10 min, contents in the well are mixed thoroughly and OD was read at 570 nm.

S. epidermidis biofilms = assay: MBIC and checkerboard synergy on preformed biofilm (MTT assay); format: cell-based, Staphylococcus epidermidis; conditions: for MBIC (drug alone): 6 hr treatment; for MBIC: S. epidermidis ATCC 12228 biofilm
Protocol: The ability of P128 to inhibit growth of S. aureus in a preformed biofilm was measured by determining minimum biofilm inhibition concentration (MBIC), defined as minimum concentration showing growth inhibition in a MTT based assay. Since P128 kills Staphylococcus cultures rapidly, it was expected to show a rapid effect on biofilms as well. Paul, et al. (2011) “A novel bacteriophage Tail-Associated Muralytic Enzyme (TAME) from Phage K and its development into a potent antistaphylococcal protein” BMC Microbiol. 11:226.
Culture conditions were optimized for reproducibly obtaining a robust biofilm of S. epidermidis in 96 well microtitre plates. For this purpose, biofilms were generated in microtiter plates and the surface-adhered cultures remaining after washing off the planktonic cells were analyzed at the end of 72 h by MTT dye assay. Briefly, an overnight-grown culture of the S. epidermidis strain was diluted 1:40 in LB broth. 200 μL of diluted culture was aliquoted into microtiter plate wells. Microplates were placed in a shaker-incubator set to 37° C., and 100 rpm for 24 h followed by 48 h incubation under static conditions at 37° C. The contents of wells were aspirated and discarded. Wells were washed twice with 1×PBS and the presence of biofilm in the wells at the end of 72-hour period was determined by metabolic dye-reduction assay method using MTT (3-(4,5-dimethylthiazol-2-yl)-2,5-diphenyltetrazolium bromide; Himedia). In this assay, live cells reduce the dye leading to color formation which can be read at 570 nm and the intensity of color can be correlated to number of live cells.
[…] LB supplemented with 50 μg/mL Ca^++ was used for daptomycin treatment wells. The contents of the well was aspirated out and discarded. The biofilm adhered to the wells was quantified by MTT assay as described above. In each experiment, in addition to the combination MBIC, the MBIC of each drug was also determined individually. The fractional MBIC concentrations were determined by MTT dye method as described above. The FICI and synergy was calculated.

S. aureus MW2 biofilms = assay: Biofilm eradication/biomass removal, crystal violet staining; format: cell-based, Staphylococcus aureus; conditions: for Activity on preformed biofilm, crystal violet: 500 μg/mL for 24 h, MSSA and MRSA strains
Protocol: Dis. 209:1469-78 was followed. Briefly, S. aureus MW2 strain grown on blood agar plates was inoculated into TSB with 2% glucose and the culture was grown overnight. The culture was diluted 1:50 in TSB to achieve an […] of the diluted culture was added to 1.8 mL of TSB media aliquoted into each well of a 24 well plate (˜5×10^5 CFU). The plates were kept at 37° C. under static conditions for 18 h, the contents were aspirated, the wells were washed twice with 2.0 mLmL of 1×PBS, and 1 mLmL of media+1 mLmL of the drug was added to each well and incubated at 37° C. for 0, 2, 4 and 24 h. The contents were aspirated out at the stipulated time points and the wells were washed with 2 mL of 1×PBS. The wells were allowed to dry at 37° C. for 15 min and stained with 1 mLmL of 1% CV for 5 min. The wells were washed with 1 mLmL of 1×PBS, air dried and observed for intensity of blue color.
as §1

[4] = Table VB2: Daptomycin 12.5 mg/kg sc 1 dose per day for 3 days, P128 800 μg per dose sc 3 doses/day for 3 days, or both
[5] = S. epidermidis B9470 72 h preformed biofilm
[6] = S. epidermidis B9471 72 h preformed biofilm
[7] = S. epidermidis B9472 72 h preformed biofilm
[8] = P128 800 μg per animal sc, thrice a day for three days
[9] = Table VB1: pre-colonised catheter, P128 800 μg per dose sc, 3 doses/day for 3 days

## CCCCCCCCCC(=O)N[C@@H](Cc1c[nH]c2ccccc12)C(=O)N[C@H](CC(N)=O)C(=O)N[C@@H](CC(=O)O)C(=O)N[C@@H]1C(=O)NCC(=O)N[C@@H](CCCN)C(=O)N[C@@H](CC(=O)O)C(=O)N[C@H](C)C(=O)N[C@@H](CC(=O)O)C(=O)NCC(=O)N[C@H](CO)C(=O)N[C@@H]([C@H](C)CC(=O)O)C(=O)N[C@@H](CC(=O)c2ccccc2N)C(=O)O[C@@H]1C [Daptomycin, daptomycin]
[1]; [4]
  CFU recovered from catheter biofilm, individual animals: 4.9 CFU (Log10)/ml and 2.6 CFU (Log10)/ml and 3.0 CFU (Log10)/ml and 2.7 CFU (Log10)/ml
[2]
  Effect on catheter biofilm (safranin/SEM): significant reduction in biofilm mass
[3]
  Activity on preformed biofilm, crystal violet: poor activity
S. epidermidis biofilms; [5]
  MBIC (drug alone): 15.6 µg/mL
S. epidermidis biofilms; [6]
  MBIC (drug alone): 15.6 µg/mL
S. epidermidis biofilms; [7]
  MBIC (drug alone): 7.8 µg/mL
S. aureus MW2 biofilms
  Activity on preformed biofilm, crystal violet: insignificant activity

## CC(=O)NC[C@H]1CN(c2ccc(N3CCOCC3)c(F)c2)C(=O)O1 [Linezolid, linezolid]
[3]
  Activity on preformed biofilm, crystal violet: poor activity
S. epidermidis biofilms; [5]
  MBIC (drug alone): 7.8 µg/mL
S. epidermidis biofilms; [6]
  MBIC (drug alone): 250 µg/mL
S. epidermidis biofilms; [7]
  MBIC (drug alone): 250 µg/mL
S. aureus MW2 biofilms
  Activity on preformed biofilm, crystal violet: insignificant activity

## CN[C@H](CC(C)C)C(=O)N[C@H]1C(=O)N[C@@H](CC(N)=O)C(=O)N[C@H]2C(=O)N[C@H]3C(=O)N[C@H](C(=O)N[C@H](C(=O)O)c4cc(O)cc(O)c4-c4cc3ccc4O)[C@H](O)c3ccc(c(Cl)c3)Oc3cc2cc(c3O[C@@H]2O[C@H](CO)[C@@H](O)[C@H](O)[C@H]2O[C@H]2C[C@](C)(N)[C@H](O)[C@H](C)O2)Oc2ccc(cc2Cl)[C@H]1O [Vancomycin, vancomycin]
[2]
  Effect on catheter biofilm (safranin/SEM): minimal effect
[3]
  Activity on preformed biofilm, crystal violet: poor activity
S. epidermidis biofilms; [5]
  MBIC (drug alone): 7.8 µg/mL
S. epidermidis biofilms; [6]
  MBIC (drug alone): 250 µg/mL
S. epidermidis biofilms; [7]
  MBIC (drug alone): 250 µg/mL
S. aureus MW2 biofilms
  Activity on preformed biofilm, crystal violet: insignificant activity

B1: P128: anti-staphylococcal chimeric protein: phage tail associated muralytic enzyme (TAME) cell wall-degrading region plus staphylococcus-specific binding region; SEQ ID NO: 1 (protein)
chain: MSLDSLKKYNGKLPKHDPSFVQPGNRHYKYQCTWYAYNRRGQLGIPVPLWGDAADWIGGAKGAGYGVGRTPKQGACVIWQRGVQGGSPQYGHVAFVEKVLDGGKKIFISEHNYATPNGYGTRTIDMSSAIGKNAQFIYDKKLETPNTGWKTNKYGTLYKSESASFTPNTDIITRTTGPFRSMPQSGVLKAGQTIHYDEVMKQDGHVWVGYTGNSGQRIYLPVRTWNKSTNTLGVLWGTIK
modifications: P128 chimera
[1]; [8]
  Reduction in CFUs compared to the control group: greater than 1 log
  Safranin staining of catheters: eradication of biofilm
[1]; [9]
  Avg. CFU recovered from catheter biofilm: 2.8 CFU Log(10)/ml
  CFU recovered from catheter biofilm, individual animals: 4.15 CFU (Log10)/ml and 3.12 CFU (Log10)/ml and 1.00 CFU (Log10)/ml and Nil
[1]; [4]
  CFU recovered from catheter biofilm, individual animals: 2.5 CFU (Log10)/ml and 2.0 CFU (Log10)/ml and 2.7 CFU (Log10)/ml
[2]
  Effect on catheter biofilm (safranin/SEM): eradication of the biofilm
[3]; P128 8 μg/mL (1×MIC), SOC antibiotics 250×MIC or 100×MIC
  Removal of visual biomass: removed all visual biomass
[3]; P128 at 1×MIC (8 μg/mL)
  Time of treatment to eliminate the biofilms: ≤ 2 h
[3]; even after 24 h, all three CoNS sp.
  OD570 of crystal violet vs cell control: significant drop in OD
S. epidermidis biofilms; 4 h
  MBIC: 7.8 µg/mL
S. epidermidis biofilms; 6 h
  MBIC: 7.8 µg/mL
S. epidermidis biofilms; 8 h
  MBIC: 7.8 µg/mL
S. epidermidis biofilms; 24 h
  MBIC: >1000 µg/mL
S. epidermidis biofilms; [5]
  MBIC (drug alone): 32 µg/mL and 16 µg/mL
S. epidermidis biofilms; [6]
  MBIC (drug alone): 32 µg/mL
S. epidermidis biofilms; [7]
  MBIC (drug alone): 32 µg/mL
S. aureus MW2 biofilms; P128 at 1×MIC (8 μg/mL)
  Time of treatment to eliminate the biofilms: ≤ 2 h
S. aureus MW2 biofilms; even after 24 h
  OD570 of crystal violet vs cell control: significant drop in OD

From patent US20190282673A1, “STAPHTAME ACTIVITY ON BIOFILMS” (priority 2016, published 2019)
